# In patent US8952024B2, “Herbicidal pyrimidone derivatives” (E I du Pont de Nemours and Company, priority 2009, dated 2015):
# Assays:
# Experiment in all cases: Test D pre-/postemergence plant response
# Assay type in all cases: in vivo
# [1] = system: barnyardgrass (Echinochloa crus-galli)
# Excerpt: (§1) Seeds of plant species selected from bermudagrass (Cynodon dactylon), Surinam grass (Brachiaria decumbens), large crabgrass (Digitaria sanguinalis), green foxtail (Setaria viridis), goosegrass (Eleusine indica), johnsongrass (Sorghum halepense), kochia (Kochia scoparia), morningglory (pitted morningglory, Ipomoea lacunosa), nutsedge (purple nutsedge, Cyperus rotundus), ragweed (common ragweed, Ambrosia elatior), black mustard (Brassica nigra), guineagrass (Panicum maximum), dallisgrass (Paspalum dilatatum), barnyardgrass (Echinochloa crus-galli), sandbur (southern sandbur, Cenchrus echinatus), sowthistle (common sowthistle, Sonchus oleraceous), prickly sida (Sida spinosa), Italian ryegrass (Lolium multiflorum), purslane (common purslane, Portulaca oleracea), signalgrass (broadleaf signalgrass, Brachiaria platyphylla), groundsel (common groundsel, Senecio vulgaris), chickweed (common chickweed, Stellaria media), dayflower (Virginia (VA) dayflower, Commelina virginica), bluegrass (annual bluegrass, Poa annua), naked crabgrass (Digitaria nuda), itchgrass (Rottboellia cochinchinensis), quackgrass (Elytrigia repens), field bindweed (Convolvulus arvensis), spanishneedles (Bidens bipinnata), mallow (common mallow, Malva sylvestris) and Russian thistle (Salsola kali), were planted into a blend of loam soil and sand and treated preemergence with test chemicals formulated in a non-phytotoxic solvent mixture which included a surfactant. At the same time, plants from these weed species were treated with postemergence applications of the test chemicals formulated in the same manner. Plants ranged in height from 2 to 18 cm (1- to 4-leaf stage) for postemergence treatments.
# (§2) Treated plants and controls were maintained in a greenhouse for 14 to 21 days, after which time all species were visually evaluated and compared to controls. Plant response ratings, summarized in Table D, are based on a scale of 0 to 100 where 0 is no effect and 100 is complete control. A dash (-) response means no test result.
# [2] = system: bluegrass (annual bluegrass, Poa annua)
# Excerpt: as §1, §2
# [3] = system: chickweed (common chickweed, Stellaria media); details: Postemergence
# Excerpt: as §1, §2
# [4] = system: dallisgrass (Paspalum dilatatum)
# Excerpt: as §1, §2
# [5] = system: goosegrass (Eleusine indica)
# Excerpt: as §1, §2
# [6] = system: green foxtail (Setaria viridis)
# Excerpt: as §1, §2
# [7] = system: itchgrass (Rottboellia cochinchinensis)
# Excerpt: as §1, §2
# [8] = system: johnsongrass (Sorghum halepense)
# Excerpt: as §1, §2
# [9] = system: kochia (Kochia scoparia)
# Excerpt: as §1, §2
# [10] = system: large crabgrass (Digitaria sanguinalis)
# Excerpt: as §1, §2
# [11] = system: morningglory (pitted morningglory, Ipomoea lacunosa)
# Excerpt: as §1, §2
# [12] = system: nutsedge (purple nutsedge, Cyperus rotundus)
# Excerpt: as §1, §2
# [13] = system: prickly sida (Sida spinosa)
# Excerpt: as §1, §2
# [14] = system: purslane (common purslane, Portulaca oleracea)
# Excerpt: as §1, §2
# [15] = system: ragweed (common ragweed, Ambrosia elatior)
# Excerpt: as §1, §2
# [16] = system: sowthistle (common sowthistle, Sonchus oleraceous)
# Excerpt: as §1, §2
# [17] = Postemergence, 16 g ai/ha, scale 0 to 100
# [18] = Postemergence, 31 g ai/ha, scale 0 to 100 (0 no effect, 100 complete control)
# [19] = Postemergence, 125 g ai/ha, scale 0 to 100 (0 no effect, 100 complete control)
# [20] = Postemergence, 62 g ai/ha, scale 0 to 100 (0 no effect, 100 complete control)
# [21] = Preemergence, 16 g ai/ha, scale 0 to 100, 0 no effect, 100 complete control
# [22] = Preemergence, 31 g ai/ha, scale 0 to 100 (0 no effect, 100 complete control)
# [23] = Preemergence, 62 g ai/ha, scale 0 to 100
# [24] = Preemergence, 125 g ai/ha, scale 0 to 100
# [25] = Postemergence, 31 g ai/ha, scale 0 to 100
structure (smiles),measurement,setting,value
"Cc1c(F)cccc1-n1c(-c2ccccc2)ncc(C(=O)C2=C(O)CCCC2=O)c1=O [Compound 47, 3-(3-fluoro-2-methylphenyl)-5-[(2-hydroxy-6-oxo-1-cyclohexen-1-yl)carbonyl]-2-phenyl-4(3H)-pyrimidinone]","Plant response rating, Barnyardgrass",[1]; [17],70
same,"Plant response rating, Barnyardgrass",[1]; [18],70
same,"Plant response rating, Barnyardgrass",[1]; [19],70
same,"Plant response rating, Barnyardgrass",[1]; [20],70
same,"Plant response rating, Barnyardgrass",[1]; [21],0
same,"Plant response rating, Barnyardgrass",[1]; [22],0
same,"Plant response rating, Barnyardgrass",[1]; [23],5
same,"Plant response rating, Barnyardgrass",[1]; [24],5
same,"Plant response rating, Bluegrass",[2]; [17],0
same,"Plant response rating, Bluegrass",[2]; [18],0
same,"Plant response rating, Bluegrass",[2]; [19],0
same,"Plant response rating, Bluegrass",[2]; [20],0
same,"Plant response rating, Bluegrass",[2]; [21],0
same,"Plant response rating, Bluegrass",[2]; [22],0
same,"Plant response rating, Bluegrass",[2]; [23],0
same,"Plant response rating, Bluegrass",[2]; [24],35
same,"Plant response rating, Chickweed","[3]; 16 g ai/ha, scale 0 to 100",50
same,"Plant response rating, Chickweed","[3]; 31 g ai/ha, scale 0 to 100",65
same,"Plant response rating, Chickweed","[3]; 125 g ai/ha, scale 0 to 100 (0 no effect, 100 complete control)",65
same,"Plant response rating, Dallisgrass",[4]; [17],5
same,"Plant response rating, Dallisgrass",[4]; [25],10
same,"Plant response rating, Dallisgrass",[4]; [19],15
same,"Plant response rating, Dallisgrass",[4]; [20],15
same,"Plant response rating, Dallisgrass",[4]; [21],0
same,"Plant response rating, Dallisgrass",[4]; [22],25
same,"Plant response rating, Dallisgrass",[4]; [23],65
same,"Plant response rating, Dallisgrass",[4]; [24],75
same,"Plant response rating, Goosegrass",[5]; [17],40
same,"Plant response rating, Goosegrass",[5]; [25],65
same,"Plant response rating, Goosegrass",[5]; [19],65
same,"Plant response rating, Goosegrass",[5]; [20],65
same,"Plant response rating, Goosegrass",[5]; [21],0
same,"Plant response rating, Goosegrass",[5]; [22],0
same,"Plant response rating, Goosegrass",[5]; [23],5
same,"Plant response rating, Goosegrass",[5]; [24],75
same,"Plant response rating, Foxtail, Green",[6]; [17],5
same,"Plant response rating, Foxtail, Green",[6]; [25],35
same,"Plant response rating, Foxtail, Green",[6]; [19],95
same,"Plant response rating, Foxtail, Green",[6]; [20],50
same,"Plant response rating, Foxtail, Green",[6]; [21],0
same,"Plant response rating, Foxtail, Green",[6]; [22],0
same,"Plant response rating, Foxtail, Green",[6]; [23],0
same,"Plant response rating, Foxtail, Green",[6]; [24],0
same,"Plant response rating, Itchgrass",[7]; [17],0
same,"Plant response rating, Itchgrass",[7]; [25],5
same,"Plant response rating, Itchgrass",[7]; [19],10
same,"Plant response rating, Itchgrass",[7]; [20],5
same,"Plant response rating, Itchgrass",[7]; [21],0
same,"Plant response rating, Itchgrass",[7]; [22],0
same,"Plant response rating, Itchgrass",[7]; [23],0
same,"Plant response rating, Itchgrass",[7]; [24],0
same,"Plant response rating, Johnsongrass",[8]; [17],5
same,"Plant response rating, Johnsongrass",[8]; [25],15
same,"Plant response rating, Johnsongrass",[8]; [19],65
same,"Plant response rating, Johnsongrass",[8]; [20],35
same,"Plant response rating, Johnsongrass",[8]; [21],0
same,"Plant response rating, Johnsongrass",[8]; [22],0
same,"Plant response rating, Johnsongrass",[8]; [23],0
same,"Plant response rating, Johnsongrass",[8]; [24],75
same,"Plant response rating, Kochia",[9]; [17],0
same,"Plant response rating, Kochia",[9]; [25],10
same,"Plant response rating, Kochia",[9]; [19],30
same,"Plant response rating, Kochia",[9]; [20],20
same,"Plant response rating, Kochia",[9]; [21],0
same,"Plant response rating, Kochia",[9]; [22],50
same,"Plant response rating, Kochia",[9]; [23],100
same,"Plant response rating, Kochia",[9]; [24],100
same,"Plant response rating, Crabgrass, Large",[10]; [17],20
same,"Plant response rating, Crabgrass, Large",[10]; [25],50
same,"Plant response rating, Crabgrass, Large",[10]; [19],65
same,"Plant response rating, Crabgrass, Large",[10]; [20],60
same,"Plant response rating, Crabgrass, Large",[10]; [21],0
same,"Plant response rating, Crabgrass, Large",[10]; [22],0
same,"Plant response rating, Crabgrass, Large",[10]; [23],5
same,"Plant response rating, Crabgrass, Large",[10]; [24],95
same,"Plant response rating, Morningglory",[11]; [17],5
same,"Plant response rating, Morningglory",[11]; [25],5
same,"Plant response rating, Morningglory",[11]; [19],50
same,"Plant response rating, Morningglory",[11]; [21],0
same,"Plant response rating, Morningglory",[11]; [22],0
same,"Plant response rating, Morningglory",[11]; [23],20
same,"Plant response rating, Morningglory",[11]; [24],65
same,"Plant response rating, Nutsedge, Purple",[12]; [17],0
same,"Plant response rating, Nutsedge, Purple",[12]; [25],0
same,"Plant response rating, Nutsedge, Purple",[12]; [19],20
same,"Plant response rating, Nutsedge, Purple",[12]; [20],10
same,"Plant response rating, Nutsedge, Purple",[12]; [21],0
same,"Plant response rating, Nutsedge, Purple",[12]; [22],0
same,"Plant response rating, Nutsedge, Purple",[12]; [23],10
same,"Plant response rating, Nutsedge, Purple",[12]; [24],35
same,"Plant response rating, Prickly Sida",[13]; [17],60
same,"Plant response rating, Prickly Sida",[13]; [25],70
same,"Plant response rating, Prickly Sida",[13]; [19],90
same,"Plant response rating, Prickly Sida",[13]; [20],80
same,"Plant response rating, Prickly Sida",[13]; [21],0
same,"Plant response rating, Prickly Sida",[13]; [22],50
same,"Plant response rating, Prickly Sida",[13]; [23],65
same,"Plant response rating, Prickly Sida",[13]; [24],100
same,"Plant response rating, Purslane",[14]; [17],20
same,"Plant response rating, Purslane",[14]; [25],20
same,"Plant response rating, Purslane",[14]; [19],30
same,"Plant response rating, Purslane",[14]; [20],30
same,"Plant response rating, Purslane",[14]; [21],0
same,"Plant response rating, Purslane",[14]; [22],0
same,"Plant response rating, Purslane",[14]; [23],95
same,"Plant response rating, Purslane",[14]; [24],100
same,"Plant response rating, Ragweed",[15]; [17],75
same,"Plant response rating, Ragweed",[15]; [25],75
same,"Plant response rating, Ragweed",[15]; [19],95
same,"Plant response rating, Ragweed",[15]; [20],80
same,"Plant response rating, Ragweed",[15]; [21],0
same,"Plant response rating, Ragweed",[15]; [22],50
same,"Plant response rating, Ragweed",[15]; [24],100
same,"Plant response rating, Sowthistle",[16]; [17],90
same,"Plant response rating, Sowthistle",[16]; [25],100
same,"Plant response rating, Sowthistle",[16]; [19],100
same,"Plant response rating, Sowthistle",[16]; [20],100
same,"Plant response rating, Sowthistle",[16]; [21],65
same,"Plant response rating, Sowthistle",[16]; [22],65
same,"Plant response rating, Sowthistle",[16]; [24],100
